“Also recorded” adds a separate entry of the source. *1 amine or outer side, *2 acyl side, *3 side chain or, on linkers, in order; H or OH if unused. Where a SMILES comes first, the peptide text is derived from it. Bridges are numbered along the chain shown (N, C = ends). Roman numbers before positions name the chains, in order. [ ]: non-standard residue; d: D form. Actinocin(9to1) = Cc1c2oc3c(C)ccc(C(=O)[*:1])c3nc-2c(C(=O)[*:2])c(N)c1=O; NMeV = CN[C@H](C(=O)O)C(C)C; Sar = CNCC(=O)O
How the values were obtained:
[1] = cited from earlier work; for absorption (in words): oral or unspecified
[2] = system: glycosylation of ceramide in MCF-7-AdrR cells (UDP-glucose:ceramide glucosyltransferase); assay: Glycosylation of C6-ceramide and natural glycosphingolipid synthesis, [3H]galactose labeling; assay type: cell-based
Description: FIG. 14A and FIG. 14B. Effect of Tamoxifen on Ceramide Synthesis and Glycosylation in MCF-7-AdrR Cells. FIG. 14: A Influence of tamoxifen on ceramide synthesis. The experiment was conducted as described in the legend to FIG. 13. Aliquots of the total lipid extract were based-hydrolyzed as described in Example I, separated by TLC using solvent system IV, and the resolved [^3 H]ceramide was quantitated by liquid scintillation spectrometry. Results are the mean±SEM of duplicate determinations from two separate experiments. FIG. 14B: Effect of tamoxifen on glycosylation of C6 -ceramide. Cells, in 100×20 mm culture dishes, were preincubated without or with 5.0 μM tamoxifen for 30 min, followed by incubation without or with 5.0 μM C6 -ceramide:BSA (prepared at a 1:1 molar ratio) for an additional 30 min. Cells were labeled thereafter with 1.0 μCi/ml [^3 H]galactose for 24 h. [3H]Galactose uptake was determined and found to be similar in all experimental points (1.0×10^6 cpm/dish). The total extracted lipid was applied to TLC separation and [^3 H]glycosphingolipids were analyzed as described in the legend to FIG. 10. The autoradiography of a representative chromatogram is shown.
In order to explore this notion, a short-chain ceramide analog with a 6-carbon N-acyl group (C6 -ceramide), was utilized as a substrate.

[3] = cited from earlier work
[4] = system: lipid-1 and -2 formation in MCF-7-AdrR cells; assay: Effect of inhibitors of sphingolipid biosynthesis on lipid-1 and -2 formation; assay type: cell-based
Description: FIG. 5A, FIG. 5B, and FIG. 5C. Effect of inhibitors of sphingolipid biosynthesis on lipid-1 and -2 formation in MCF-7-AdrR cells. Cells, grown to near-confluency in 100×20 mm culture dishes, were radiolabeled with [^3 H]palmitic acid (FIG. 5A), or [^3 H]serine (FIG. 5B, FIG. 5C), in the presence or absence of 10 mM L-cycloserine (FIG. 5A), 50 μM FB1 (FIG. 5B), or 20 μM PPMP (FIG. 5C), for 24 h in RPMI-1640 medium containing 0.1% BSA. Extracted lipids were analyzed by TLC using solvent system II (FIG. 5A, FIG. 5B), or solvent system III (FIG. 5C) as described in Example I. Lac-cer, lactosylceramide.
The effects of various inhibitors of sphingolipid biosynthesis were investigated, using MCF-7-AdrR cells, labeled with either [^3 H]palmitic acid, or [^3 H]serine. The first enzymatic reaction in sphingoid base biosynthesis, catalyzed by serine:palmitoyltransferase, is the formation of 3-ketosphinganine from serine and palmitoyl-CoA (FIG. 1).

[5] = cited from earlier work; remark: listed apart in the source
[6] = system: glycosylceramide synthesis in MCF-7-AdrR cells; assay: Effect of PPMP on cellular glycosylceramide levels, [3H]serine 24 h; assay type: cell-based; conditions: FIG. 16A
Excerpt: FIG. 16A and FIG. 16B. […] FIG. 16A: Effect of PPMP on cellular glycosylceramide levels.

[7] = system: MCF-7-AdrR cells; assay: Cell proliferation (MTS) assay: adriamycin toxicity and chemosensitization; conditions: for effect on adriamycin toxicity / chemosensitization (in words): 5.0 μM tested drug + adriamycin, 72 h, FIG. 15A, 16B
Excerpt: FIG. 15A and FIG. 15B. […] FIG. 15B: Glycosylceramide levels in MDR Cells following drug treatment. […] In order to avoid differences in [^3 H]glycosylceramide values which account for cell death, the same amount of total radioactive lipid from each sample was applied to TLC separation.
FIG. 16A and FIG. 16B. […] FIG. 16A: Effect of PPMP on cellular glycosylceramide levels. […] [^3 H]Glycosylceramide was quantitated as described in the legend to FIG. 9.
Vehicle (acetone, ethanol) was always added to control (minus drug) wells. The cytotoxic activity of a drug was determined using the Promega CellTiter 96™ AQueous MTS cell proliferation assay kit. Each experimental point was performed in six replicates. MTS/PMS solution (20 μl/well) was aliquoted into all wells, and the cells were incubated for 2-3 h, or until an O.D. of 0.9-1.0 was obtained as a highest reading. Thereafter, absorbence at 490 nm was recorded using an ELISA plate reader (Molecular Devices, San Diego, Calif.).

[8] = system: acid sphingomyelinase; conditions: literature; cited from earlier work
[9] = system: P388-adriamycin resistant cells; conditions: literature; cited from earlier work
[10] = in vivo; cited from earlier work
[11] = system: OVCAR-3 (MDR ovarian carcinoma); conditions: clinically relevant concentrations (Rogan et al., 1984); cited from earlier work
[12] = system: P-glycoprotein; conditions: literature; cited from earlier work
[13] = system: glycosylceramide formation in MCF-7-AdrR cells; assay: Inhibition of [3H]glycosylceramide formation in MCF-7-AdrR cells (TLC, liquid scintillation); assay type: cell-based; conditions: 5.0 μM drug, 24 h, MCF-7-AdrR, FIG. 11B; read-out: inhibition of glycosylceramide formation (cpm tritium)
Description: FIG. 9. […] Values represent the mean of determinations from three separate experiments, and are calculated as the percent glycosylceramide in the total lipid tritium extract.
FIG. 11A and FIG. 11B. […] FIG. 11: A Autoradiography. […] For autoradiography equal aliquots by volume of total lipid extract were applied to TLC plates. […] [^3 H]Glycosylceramide, visualized in panel A, was quantitated as described in the legend to FIG. 9. Each value represents mean±SEM of determinations from three separate experiments.
FIG. 12. […] [^3 H]Glycosylceramide was quantitated as described in the legend to FIG. 9. Results represents the mean±SEM of determinations from three separate experiments.
MCF-7 cells, grown in medium containing 10% FBS, were switched to media containing 5% FBS. Cell lipids were radiolabeled by adding [^3 H]serine (2.0 μCi/ml), [^3 H]palmitic acid (1.0 μCi/ml), or [^3 H]galactose (1.0 μCi/ml) to the culture medium for the indicated times. Other radiolabels can be substituted. Cells were then rinsed twice with PBS, pH 7.4, and 2 ml of ice-cold methanol containing 2% acetic acid was added. The cells were scraped free, transferred to glass test tubes (13×100 mm), and lipids were extracted by the addition of chloroform (2 ml) followed by water (2 ml). The resulting organic lower phase was withdrawn and evaporated under a stream of nitrogen. Lipids were resuspended in 100 μL of chloroform/methanol (1:1, v/v), and aliquots were applied to TLC plates.
Lipid analysis was carried out by TLC using solvent system I: chloroform/methanol/ammonium hydroxide (40:10:1, v/v) for glycosylceramide separation, solvent system II: chloroform/methanol/water (60:40:8, v/v) for sphingoglycolipid separation, or solvent system III: chloroform/methanol/acetic acid/water (50:30:7:3, v/v) for sphingomyelin separation. For determination of ceramides, an aliquot of the chloroform-soluble lipids was base-hydrolyzed in 0.1N KOH in methanol for 1 h at 37° C., lipids were re-extracted, and separated by TLC using solvent system IV: hexane/diethyl ether/formic acid (60:40:1, v/v).
Radiochromatograms were sprayed with EN^3 HANCE, and exposed for 3-7 days for autofluorgraphy. TLC areas, aligned with bands on the autoradiographs or with iodine-stained commercial lipid standards, were scraped from the plate. Water (0.5 ml) was added to the plate scrapings followed by 4.5 ml of EcoLume counting fluid, and the samples were quantitated by liquid scintillation spectrometry.

[14] = 5.0 μM C6-ceramide, FIG. 14B, […]
[15] = 10 mM L-cycloserine, [3H]palmitic acid, FIG. 5A

## Cc1c2oc3c(C)ccc(C(=O)N[C@@H]4C(=O)N[C@H](C(C)C)C(=O)N5CCC[C@H]5C(=O)N(C)CC(=O)N(C)[C@@H](C(C)C)C(=O)O[C@@H]4C)c3nc-2c(C(=O)N[C@@H]2C(=O)N[C@H](C(C)C)C(=O)N3CCC[C@H]3C(=O)N(C)CC(=O)N(C)[C@@H](C(C)C)C(=O)O[C@@H]2C)c(N)c1=O [Actinomycin D] (I: T[dV]P[Sar][NMeV] / II: T[dV]P[Sar][NMeV]; ester I:1-I:C, II:1-II:C; linker I:N-II:N via Actinocin(9to1))
[1]; in vivo, iv
  excreted into the urine: 10%
  half-life: about 36 hr
[1]; in vivo
  blood-brain barrier passage (in words): does not pass the blood-brain barrier
  dose excreted intact into the bile (in words): Half of the dose

## CCCCCCCCCCCCC/C=C/[C@@H](O)[C@H](CO)NC(=O)CCCCC [C6 -ceramide]
[2]; 5.0 μM C6-ceramide, FIG. 14B
  natural glycosylceramide level (in words): not altered
[2]; [14]
  reduction of ganglioside synthesis: 35%
  reduction of natural lactosylceramide synthesis: 33%
[2]; cells incubated with C6-ceramide
  formation of C6-glycosylceramide (in words): clearly visible

## O=NN(CCCl)C(=O)NCCCl [Carmustine, 1,3bis (2-chloroethyl)-1-nitrosourea]
[3]
  solubility in water (in words): poorly soluble in water

## CCCCC(C)C(OC(=O)CC(CC(=O)O)C(=O)O)C(CC(C)CC(O)CCCCC(O)CC(O)C(C)N)OC(=O)CC(CC(=O)O)C(=O)O (stereo not shown) [FB1]
[4]; 50 μM FB1, [3H]serine, FIG. 5B
  level of both lipid-1 and -2 (in words): profound reduction

## N[C@H]1CONC1=O [L-cycloserine]
[4]; [15]
  lipid-1 formation (in words): almost complete disappearance
  lipid-2 formation (in words): major inhibition

## O=NN(CCCl)C(=O)NC1CCCCC1 [Lomustine, 1-(2-chloro-ethyl)-3-cyclohexyl-1 nitrosourea]
[1]; 15 minutes after intravenous administration
  tissue levels vs plasma levels (in words): comparable to plasma levels
[1]; within 24 hours, oral 30 mg/m^2 to 100 mg/m^2
  excretion of radioactivity as degradation products (in words): about half
[3]; physiological pH
  ionization (in words): relatively unionized
[3]
  solubility in water (in words): relatively insoluble

## CO[C@@]12[C@H](COC(N)=O)C3=C(C(=O)C(C)=C(N)C3=O)N1C[C@@H]1N[C@@H]12 [Mitomycin]
[5]; human, in vivo, iv
  fraction of dose excreted unchanged in the urine: Approximately 10%
[5]; intravenous
  clearance from the serum (in words): rapidly cleared

## CCCCCCCCCCCCCCCC(=O)NC(CN1CCOCC1)C(O)c1ccccc1 (stereo not shown) [PPMP]
[6]; 24 h, 5.0 μM PPMP, read-out: maximal reduction in cellular glycosylceramide levels
  inhibition at 5 µM: 86%
[6]; PPMP, [3H]serine 24 h, read-out: IC50 for inhibition of glycosylceramide formation
  IC50: 900 nM
[4]; 20 μM PPMP, FIG. 5C
  ceramide levels (in words): elevation in ceramide levels
  lactosylceramide and gangliosides (in words): concomitant reduction
[4]; 20 μM PPMP, [3H]serine, FIG. 5C
  formation of lipid-1 and -2 (in words): blocked completely
[7]
  effect on adriamycin toxicity / chemosensitization (in words): clear sensitization; also recorded: effectively decreased cell survival
[7]; MCF-7-AdrR, alone
  effect of the substance alone on cell survival (in words): no influence itself on cell viability; also recorded: no effect

## COc1ccc(CCN(C)CCCOc2ccc(S(=O)(=O)c3c(C(C)C)cn4ccccc34)cc2)cc1OC [SR33557]
[8]
  inhibition of acid sphingomyelinase (in words): inhibition of acid sphingomyelinase
[9]
  reversal of MDR / adriamycin resistance in P388 cells (in words): reverse MDR

## CC[C@]1(O)C[C@H]2CN(CCc3c([nH]c4ccccc34)[C@@](C(=O)OC)(c3cc4c(cc3OC)N(C=O)[C@H]3[C@@](O)(C(=O)OC)[C@H](OC(C)=O)[C@]5(CC)C=CCN6CC[C@]43[C@@H]65)C2)C1 [Vincristine]
[10]
  tolerability / toxicity (in words): sever neurological toxicity
[1]; in vivo
  distribution in blood cells (in words): extensively concentrated in platelets
  plasma protein binding (in words): bind to plasma proteins
[1]
  absorption (in words): Unpredictable absorption

## N.N.[Cl][Pt][Cl] [cisplatin]
[11]
  resistance of OVCAR-3 to the drug (in words): resistant
[1]
  absorption (in words): not absorbed orally

## COc1cc(C[C@H]2c3cc(OC)c(OC)cc3CCN2C)c(Oc2cc3c(cc2OC)-c2c(OC)c(OC)cc4c2[C@H](C3)N(C)CC4)cc1OC [thaliblastine]
[9]
  reversal of MDR / adriamycin resistance in P388 cells (in words): reverses adriamycin resistance
[12]
  binding to P-glycoprotein (in words): binds to P-glycoprotein

## CCC(=C(c1ccccc1)c1ccccc1)c1ccccc1 [triphenylbutene]
[7]
  effect on adriamycin toxicity / chemosensitization (in words): no effect
[13]
  inhibition at 5 µM: 13%

Reference: patent US5885786A, “Methods for screening of substances for inhibition of multidrug resistance” (priority 1996, dated 1999)
